From ChEMBL document CHEMBL5291721, “A preclinical secondary pharmacology resource illuminates target-adverse drug reaction associations of marketed drugs” (Nat Commun, 2023)

Experiments:
[1] = target: T1, Alpha-2C adrenergic receptor (Homo sapiens, UniProt P18825); assay type: functional
T1 sequence (P18825 whole entry): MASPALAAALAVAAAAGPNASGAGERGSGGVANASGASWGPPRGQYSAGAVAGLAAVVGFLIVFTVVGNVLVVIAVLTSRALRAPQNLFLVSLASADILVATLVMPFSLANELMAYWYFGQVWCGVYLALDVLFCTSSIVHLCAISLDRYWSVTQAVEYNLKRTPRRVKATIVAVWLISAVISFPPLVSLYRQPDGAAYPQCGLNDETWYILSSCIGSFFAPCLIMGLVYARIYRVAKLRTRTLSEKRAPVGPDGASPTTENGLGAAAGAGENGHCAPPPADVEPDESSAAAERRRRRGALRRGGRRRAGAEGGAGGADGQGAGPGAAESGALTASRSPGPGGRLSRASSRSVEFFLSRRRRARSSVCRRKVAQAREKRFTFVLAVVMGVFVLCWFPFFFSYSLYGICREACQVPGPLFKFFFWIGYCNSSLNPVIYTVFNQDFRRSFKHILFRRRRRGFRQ

Acetylcholinesterase = Acetylcholinesterase (Homo sapiens, UniProt P22303); assay type: functional
Also: assay procedure not described here.

Chain of Acetylcholinesterase (P22303 whole entry): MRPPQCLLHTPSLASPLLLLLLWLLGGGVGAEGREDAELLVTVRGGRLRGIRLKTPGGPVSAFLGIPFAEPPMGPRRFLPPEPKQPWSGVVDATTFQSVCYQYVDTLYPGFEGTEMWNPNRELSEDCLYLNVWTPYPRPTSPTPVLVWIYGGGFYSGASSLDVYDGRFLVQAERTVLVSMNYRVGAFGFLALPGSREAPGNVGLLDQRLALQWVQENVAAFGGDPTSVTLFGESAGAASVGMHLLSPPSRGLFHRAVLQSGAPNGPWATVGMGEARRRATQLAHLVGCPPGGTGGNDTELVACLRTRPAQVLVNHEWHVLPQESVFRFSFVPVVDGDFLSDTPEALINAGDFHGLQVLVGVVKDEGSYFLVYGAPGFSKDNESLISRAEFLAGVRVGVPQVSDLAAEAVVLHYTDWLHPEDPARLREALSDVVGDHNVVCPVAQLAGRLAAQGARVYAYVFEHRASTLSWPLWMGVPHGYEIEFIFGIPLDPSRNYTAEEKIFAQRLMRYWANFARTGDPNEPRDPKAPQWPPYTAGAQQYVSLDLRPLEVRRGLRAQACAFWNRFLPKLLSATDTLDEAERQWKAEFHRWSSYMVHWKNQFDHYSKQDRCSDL

Compound | AC50 [1] [µM] | AC50 (Acetylcholinesterase) [µM]
Cc1[nH]cnc1CN1CCc2c(c3ccccc3n2C)C1=O [ALOSETRON] | 9.3 | –
C=CC(=O)N1CCC[C@@H](n2nc(-c3ccc(Oc4ccccc4)cc3)c3c(N)ncnc32)C1 [IBRUTINIB] | – | > 30
CN1C[C@H](CNC(=O)OCc2ccccc2)C[C@@H]2c3cccc4c3c(cn4C)C[C@H]21 [METERGOLINE] | – | 1.1
